Measurements taken from paper PMC524486, “Branched-chain amino acid aminotransferase and methionine formation in Mycobacterium tuberculosis” (BMC Microbiology, 2004).
Values after ≈ are worked out from the molar mass of the structure shown. Like-named read-outs stand apart in the source and are kept apart here.

Columns and labels:
[1] = system: M. tuberculosis branched-chain aminotransferase; type: biochemical, Mycobacterium tuberculosis H37Rv; settings: for amino donor activity for Met formation from KMTB: 2 mM individual amino acid, 1 mM KMTB, 30 min at 37°C (Figure 5); for Km: read-out: Apparent Km
M. tuberculosis [2] = assay: In vitro growth inhibition, microtitre doubling dilution, A650 nm; type: cell-based, M. tuberculosis H37Rv
M. tuberculosis BCAT = M. tuberculosis BCAT (Mycobacterium tuberculosis, UniProt P9WQ75); assay: Inhibition of BCAT-catalysed Met formation by aminooxy compounds; type: biochemical, Mycobacterium tuberculosis H37Rv; settings: for inhibition of Met formation, ranking at 0.1 mM / inhibition of Met formation: 2.0 mM leucine; for inhibition of Met formation, ranking at 0.1 mM: 0.1 mM inhibitor (Figure 6); for type of inhibition: fit to competitive, uncompetitive and mixed inhibition equations; for inhibition of Met formation: 0.1 or 1.0 mM inhibitor (Figure 6)
Method: Aminotransferase activities were assayed by an HPLC method. 5 or 10 μl of recombinant enzyme was added to 100 μl of substrate mix (100 mM PO4 (pH 7.4)/50 μM PLP/various concentrations of amino acid/various concentrations of keto acid) and incubated for 30 min at 37°C. The samples were then stored at -20°C until analysis by HPLC. All samples were analysed by pre-column derivatisation and reverse-phase HPLC. 10 μl of sample was mixed with 50 μl of 400 mM borate pH 10.5 and then with 10 μl of 10 mg/ml o-phthalaldehyde/12 μl/ml mercaptopropionate/400 mM borate pH 10.5 prior to the injection of 7.0 μl onto a 2.1 × 200 mm ODS-AA column (Agilent; Mississauga, ON, Canada). The column was eluted using 2.72 mg/ml sodium acetate pH 7.2/0.018% v/v triethylamine/0.3% v/v tetrahydrofuran as Buffer A and 2.72 mg/ml sodium acetate pH 7.2/40% v/v methanol/40% v/v acetonitrile as Buffer B with a linear gradient of 0 – 17% B over 16 min followed by a linear gradient of 17–100% B over 1 min and 6.0 min at 100% B. The flow rate was 0.45 ml/min from 0 – 16 min and 0.80 ml/min from 17–30 min. The elution of derivatised amino acids was monitored at 338 nm and fluorometrically with an excitation of 338 nm and an emission of 450 nm. All separations were performed on an Agilent 1100 HPLC equipped with an autosampler, variable wavelength ultraviolet/visible spectrophotometric detector, fluorescence detector, and Chemstation operating system.
Initial inhibition studies screened 13 aminooxy compounds against M. tuberculosis BCAT using 2.0 mM Leu/1.0 mM KMTB/0.1 or 1.0 mM inhibitor in the enzyme incubation. […] These reactions involved 0.5, 1.0, 2.0, or 3.0 mM Leu and 1.0 mM KMTB in the reaction mixture together with 0, 25, 50, 75, 100, 150, 200 μM of inhibitor. The Ki values were determined by non-linear curve fitting with the Scientist software programmed with competitive, uncompetitive, and mixed inhibition equations [25].

M. marinum = assay: In vitro growth inhibition, microtitre doubling dilution, A650 nm; type: cell-based, M. marinum Aronson (ATCC927)
M. tuberculosis [3] = settings: older study, other medium, cited from earlier work
[4] = varying substrate, 10 mM cosubstrate KMTB, Met formation
[5] = varying substrate, 10 mM cosubstrate KG, Glu formation
[6] = varying keto acid substrate, 10 mM cosubstrate Leu
[7] = M. tuberculosis, n = 6, 14 days at 37°C, Middlebrook 7H9
[8] = M. tuberculosis, n = 6, 14 days at 37°C, Middlebrook 7H9, read-out: IC50
[9] = 0.5-3.0 mM Leu, 1.0 mM KMTB, 0-200 μM inhibitor
[10] = read-out: Kic (competitive component of mixed-type inhibition), 0.5-3.0 mM Leu, 1.0 mM KMTB, 0-200 μM inhibitor
[11] = M. marinum, n = 8, 8 days at 30°C, Middlebrook 7H9
[12] = M. marinum, n = 8, 8 days at 30°C, Middlebrook 7H9, read-out: IC50
[13] = Mycobacterium tuberculosis, 336 h

M. tuberculosis BCAT, sequence (P9WQ75 whole entry, looked up): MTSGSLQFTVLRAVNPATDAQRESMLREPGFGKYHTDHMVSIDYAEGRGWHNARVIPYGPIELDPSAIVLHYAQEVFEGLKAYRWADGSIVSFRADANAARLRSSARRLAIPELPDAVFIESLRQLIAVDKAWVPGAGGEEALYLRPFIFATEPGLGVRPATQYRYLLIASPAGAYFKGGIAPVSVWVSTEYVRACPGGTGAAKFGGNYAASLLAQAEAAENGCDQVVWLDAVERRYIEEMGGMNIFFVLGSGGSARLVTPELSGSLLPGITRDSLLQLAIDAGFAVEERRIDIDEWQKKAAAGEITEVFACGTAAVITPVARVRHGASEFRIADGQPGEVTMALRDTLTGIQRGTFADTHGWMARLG

N[C@@H](CCC(=O)O)C(=O)O [Glu, glutamate]
amino donor activity for Met formation from KMTB [1]: also active as amino donors | Apparent Vmax [1, 4]: 5.70 ± 1.20 μmol/min/mg protein | Km [1, 4]: 9530 ± 3430 µM

CC[C@H](C)[C@H](N)C(=O)O [Ile, Isoleucine]
amino donor activity for Met formation from KMTB [1]: most effective substrates | Apparent Vmax [1, 5]: 14.35 ± 1.08 μmol/min/mg protein | Km [1, 5]: 6160 ± 1140 µM | Apparent Vmax [1, 4]: 4.28 ± 0.32 μmol/min/mg protein | Km [1, 4]: 2850 ± 560 µM

O=C(O)CCC(=O)C(=O)O [KG, ketoglutarate]
Apparent Vmax [1, 6]: 12.80 ± 1.12 μmol/min/mg protein | Km [1, 6]: 6950 ± 1440 µM

CSCCC(=O)C(=O)O [KMTB, ketomethiobutyrate]
Apparent Vmax [1, 6]: 4.22 ± 0.72 μmol/min/mg protein | Km [1, 6]: 4200 ± 1790 µM

CC(C)C[C@H](N)C(=O)O [Leu, leucine]
amino donor activity for Met formation from KMTB [1]: most effective substrates | Apparent Vmax [1, 5]: 13.44 ± 0.84 μmol/min/mg protein | Km [1, 5]: 6020 ± 940 µM | Apparent Vmax [1, 4]: 3.65 ± 0.43 μmol/min/mg protein | Km [1, 4]: 2500 ± 900 µM

CC(C)(C)ON [O-(t-butyl)hydroxylamine]
MIC (M. tuberculosis [2]; [7]): 10000 µM | IC50 (M. tuberculosis [2]; [8]): 131 ± 23.1 µM | inhibition of Met formation, ranking at 0.1 mM (M. tuberculosis BCAT; 1.0 mM KMTB): most active | Kiu (uncompetitive component of mixed-type inhibition) (M. tuberculosis BCAT; [9]): 85.60 ± 44.79 µM | type of inhibition (M. tuberculosis BCAT): mixed-type inhibition | Ki (M. tuberculosis BCAT; [10]): 11 ± 2.76 µM | MIC (M. marinum; [11]): 10000 µM | IC50 (M. marinum; [12]): 43.2 ± 10.5 µM

C=CCON [O-allylhydroxylamine]
MIC (M. tuberculosis [2]; M. tuberculosis, as stated in text (present data), read-out: MIC): 156 µM | MIC (M. tuberculosis [2]; [7]): 156 µM | IC50 (M. tuberculosis [2]; [8]): 39.2 ± 2.01 µM | inhibition of Met formation, ranking at 0.1 mM (M. tuberculosis BCAT; 1.0 mM KMTB): most active | Kiu (uncompetitive component of mixed-type inhibition) (M. tuberculosis BCAT; [9]): > 200 µM | type of inhibition (M. tuberculosis BCAT): mixed-type inhibition | Ki (M. tuberculosis BCAT; [10]): 21.6 ± 11.1 µM | MIC (M. marinum; [11]): 78 µM | IC50 (M. marinum; [12]): 8.49 ± 1.96 µM | MIC (M. marinum; M. marinum, read-out: MIC): 78 µM

NOCc1ccccc1 [O-benzylhydroxylamine]
MIC (M. tuberculosis [2]; [7]): 1250 µM | IC50 (M. tuberculosis [2]; [8]): 468 ± 62.8 µM | inhibition of Met formation, ranking at 0.1 mM (M. tuberculosis BCAT; 1.0 mM KMTB): most active | Kiu (uncompetitive component of mixed-type inhibition) (M. tuberculosis BCAT; [9]): 84.08 ± 31.91 µM | type of inhibition (M. tuberculosis BCAT): mixed-type inhibition | Ki (M. tuberculosis BCAT; [10]): 8.2 ± 2.56 µM | MIC (M. marinum; [11]): 1250 µM | IC50 (M. marinum; [12]): 411 ± 67.1 µM

C[Si](C)(C)ON [O-trimethylsilylhydroxylamine]
inhibition of Met formation (M. tuberculosis BCAT; 1.0 mM KMTB): With the exception of O-trimethylsilylhydroxylamine, all of the compounds inhibited Met formation to some extent

N[C@@H](Cc1ccccc1)C(=O)O [Phe, phenylalanine]
amino donor activity for Met formation from KMTB [1]: also active as amino donors | Apparent Vmax [1, 4]: 2.17 ± 0.22 μmol/min/mg protein | Km [1, 4]: 7440 ± 1400 µM

N[C@@H](Cc1ccc(O)cc1)C(=O)O [Tyrosine]
amino donor activity for Met formation from KMTB [1]: much lesser ability to transaminate KMTB

CC(C)[C@H](N)C(=O)O [Val, valine]
amino donor activity for Met formation from KMTB [1]: most effective substrates | Apparent Vmax [1, 5]: 11.82 ± 0.80 μmol/min/mg protein | Km [1, 5]: 5790 ± 990 µM | Apparent Vmax [1, 4]: 2.58 ± 0.41 μmol/min/mg protein | Km [1, 4]: 1770 ± 860 µM

NOCC[C@H](N)C(=O)O [canaline]
IC50 (M. tuberculosis [2]; [13]): 273 ± 14.6 µM | MIC (M. tuberculosis [2]; [13]): 1250 µM | inhibition of Met formation (M. tuberculosis BCAT; 1.0 mM KMTB): not a particularly good inhibitor | IC50 (M. marinum; Mycobacterium marinum, 192 h): 335 ± 13.6 µM | MIC (M. marinum; Mycobacterium marinum, 192 h): 1250 µM

NOCC(=O)O [carboxymethoxylamine]
IC50 (M. tuberculosis [2]; Mycobacterium tuberculosis, 336 h, M. tuberculosis, n = 6, 14 days at 37°C, Middlebrook 7H9, read-out: IC50): 71 ± 7.83 µM | MIC (M. tuberculosis [2]; Mycobacterium tuberculosis, 336 h, M. tuberculosis, n = 6, 14 days at 37°C, Middlebrook 7H9, read-out: MIC): 313 µM | MIC (M. tuberculosis [2]; Mycobacterium tuberculosis, M. tuberculosis, as stated in text (present data), read-out: MIC): 313 µM | Ki (M. tuberculosis BCAT): 21 ± 7.27 µM | inhibition of Met formation, ranking at 0.1 mM (M. tuberculosis BCAT; 1.0 mM KMTB): most active | Kiu (uncompetitive component of mixed-type inhibition) (M. tuberculosis BCAT; [9]): 142.42 ± 69.76 µM | type of inhibition (M. tuberculosis BCAT): mixed-type inhibition | MIC (M. tuberculosis [3]; ref 35): 910 µM (≈ 82.9 µg/mL) | MIC (M. tuberculosis [3]; ref 37): 170 µM (≈ 15.5 µg/mL) | IC50 (M. marinum; Mycobacterium marinum, 192 h, M. marinum, n = 8, 8 days at 30°C, Middlebrook 7H9, read-out: IC50): 89.3 ± 7.65 µM | MIC (M. marinum; Mycobacterium marinum, 192 h, M. marinum, n = 8, 8 days at 30°C, Middlebrook 7H9, read-out: MIC): 313 µM

[H]/N=C(/N)N[C@H]1[C@H](O)[C@@H](O)[C@H](O[C@@H]2O[C@@H](C)[C@](O)(C=O)[C@H]2O[C@@H]2O[C@@H](CO)[C@H](O)[C@@H](O)[C@@H]2NC)[C@@H](N/C(N)=N\[H])[C@@H]1O [streptomycin]
MIC (M. tuberculosis [2]; Mycobacterium tuberculosis, M. tuberculosis, read-out: MIC): 2 µg/mL | MIC (M. marinum; Mycobacterium marinum, M. marinum, read-out: MIC): 8 µg/mL

N[C@@H](Cc1c[nH]c2ccccc12)C(=O)O [tryptophan]
amino donor activity for Met formation from KMTB [1]: much lesser ability to transaminate KMTB
